Results: the NIST ThermoML archive (doi:10.1007/s10765-010-0886-6)
“And” between values parts separate entries of the source, which are not always exact repeats. Equal values may be shown once.

Settings: gamma-densimeter

Fc1cc(F)c(F)c(F)c1F [pentafluorobenzene]
mass density
Settings | Gas | Liquid
293.47 K | – | 1525.2 kg/m3
314 K | 1.13 kg/m3 | 1483.8 kg/m3
334 K | – | 1441.8 kg/m3
353.98 K | – | 1399.8 kg/m3
374.24 K | – | 1353.6 kg/m3
393.95 K | 15.9 kg/m3 | 1307.6 kg/m3
413.94 K | 24.8 kg/m3 and 24.9 kg/m3 | 1257.5 kg/m3
413.95 K | 24.7 kg/m3 | –
433.98 K | 38.6 kg/m3 | 1203 kg/m3
454.02 K | 58.3 kg/m3 | 1142.5 kg/m3
473.98 K | 87.1 kg/m3 | 1072.2 kg/m3
493.99 K | 131.1 kg/m3 | 986.7 kg/m3
504.08 K | 163.1 kg/m3 | 933.6 kg/m3
514.2 K | 208.7 kg/m3 | 866.1 kg/m3
524.52 K | 287.7 kg/m3 | 764.6 kg/m3

Settings | Critical temperature [K]
Liquid | 531.04
